In patent US20260083851A1 (AVILAR THERAPEUTICS, INC., priority 2022, published 2026):

Biological target: T1, ASGP receptor (biotinylated ASGPR) (Homo sapiens, UniProt P07306)
T1 construct: biotin (biotinylated)
T1 sequence (P07306 1-291): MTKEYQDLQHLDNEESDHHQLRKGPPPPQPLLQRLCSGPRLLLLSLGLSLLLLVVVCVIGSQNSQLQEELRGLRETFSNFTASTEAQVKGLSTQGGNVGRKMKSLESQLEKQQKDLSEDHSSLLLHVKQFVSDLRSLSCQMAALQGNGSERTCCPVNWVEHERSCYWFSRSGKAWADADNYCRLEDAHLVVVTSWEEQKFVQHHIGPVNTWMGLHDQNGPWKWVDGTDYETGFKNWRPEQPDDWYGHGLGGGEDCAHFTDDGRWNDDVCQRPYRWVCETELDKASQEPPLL
Type: binding
Settings: SPR, Biacore 8K, 25° C.; Table 1A; read-out: ASGPR KD

Row | SMILES | Kd [µM]
1 | COC(=O)c1cnc(C(=O)NC[C@H]2OC[C@H](Nc3cncc(C(F)(F)F)n3)[C@@H](O)[C@H]2O)nc1 [A72, methyl 2-((((2R,3R,4R,5S)-3,4-dihydroxy-5-((6-(trifluoromethyl)pyrazin-2-yl)amino)tetrahydro-2H-pyran-2-yl)methyl)carbamoyl)pyrimidine-5-carboxylate] | < 10
2 | O[C@@H]1[C@H](O)[C@@H](Nc2cncc(C(F)(F)F)n2)CO[C@@H]1CN1CCCCCCC1 [A73, (2R,3R,4R,5S)-2-(azocan-1-ylmethyl)-5-((6-(trifluoromethyl)pyrazin-2-yl)amino)tetrahydro-2H-pyran-3,4-diol] | < 10
3 | O=C(NC[C@H]1OC[C@H](Nc2cncc(C(F)(F)F)n2)[C@@H](O)[C@H]1O)c1ccccn1 [A74, N-(((2R,3R,4R,5S)-3,4-dihydroxy-5-((6-(trifluoromethyl)pyrazin-2-yl)amino)tetrahydro-2H-pyran-2-yl)methyl)picolinamide] | < 10
4 | O=C(NC[C@H]1OC[C@H](Nc2cncc(C(F)(F)F)n2)[C@@H](O)[C@H]1O)c1ncc(-c2ccccc2)cn1 [A75, N-(((2R,3R,4R,5S)-3,4-dihydroxy-5-((6-(trifluoromethyl)pyrazin-2-yl)amino)tetrahydro-2H-pyran-2-yl)methyl)-5-phenylpyrimidine-2-carboxamide] | < 10
5 | O=C(NC[C@H]1OC[C@H](Nc2cncc(C(F)(F)F)n2)[C@@H](O)[C@H]1O)c1cnc2c(c1)CCNC2 [A76, N-(((2R,3R,4R,5S)-3,4-dihydroxy-5-((6-(trifluoromethyl)pyrazin-2-yl)amino)tetrahydro-2H-pyran-2-yl)methyl)-5,6,7,8-tetrahydro-1,7-naphthyridine-3-carboxamide] | < 10
6 | O=C(NC[C@H]1OC[C@H](Nc2cncc(C(F)(F)F)n2)[C@@H](O)[C@H]1O)c1ccc2c(n1)CCNC2 [A77, N-(((2R,3R,4R,5S)-3,4-dihydroxy-5-((6-(trifluoromethyl)pyrazin-2-yl)amino)tetrahydro-2H-pyran-2-yl)methyl)-5,6,7,8-tetrahydro-1,6-naphthyridine-2-carboxamide] | < 10
7 | O=C(NC[C@H]1OC[C@H](Nc2cncc(C(F)(F)F)n2)[C@@H](O)[C@H]1O)c1ncc2cc[nH]c2n1 [A78, N-(((2R,3R,4R,5S)-3,4-dihydroxy-5-((6-(trifluoromethyl)pyrazin-2-yl)amino)tetrahydro-2H-pyran-2-yl)methyl)-7H-pyrrolo[2,3-d]pyrimidine-2-carboxamide] | < 10
8 | O=C(NC[C@H]1OC[C@H](Nc2cncc(C(F)(F)F)n2)[C@@H](O)[C@H]1O)c1cnc2[nH]cnc2c1 [A79, N-(((2R,3R,4R,5S)-3,4-dihydroxy-5-((6-(trifluoromethyl)pyrazin-2-yl)amino)tetrahydro-2H-pyran-2-yl)methyl)-3H-imidazo[4,5-b]pyridine-6-carboxamide] | < 10
9 | O=C(NC[C@H]1OC[C@H](Nc2cncc(C(F)(F)F)n2)[C@@H](O)[C@H]1O)c1ccncc1 [A80, N-(((2R,3R,4R,5S)-3,4-dihydroxy-5-((6-(trifluoromethyl)pyrazin-2-yl)amino)tetrahydro-2H-pyran-2-yl)methyl)isonicotinamide] | < 10
10 | O=C(NC[C@H]1OC[C@H](Nc2cncc(C(F)(F)F)n2)[C@@H](O)[C@H]1O)c1ncc2ccccc2n1 [A81, N-(((2R,3R,4R,5S)-3,4-dihydroxy-5-((6-(trifluoromethyl)pyrazin-2-yl)amino)tetrahydro-2H-pyran-2-yl)methyl)quinazoline-2-carboxamide] | < 10
11 | O=C(NC[C@H]1OC[C@H](Nc2cncc(C(F)(F)F)n2)[C@@H](O)[C@H]1O)c1cnc2cc[nH]c2n1 [A82, N-(((2R,3R,4R,5S)-3,4-dihydroxy-5-((6-(trifluoromethyl)pyrazin-2-yl)amino)tetrahydro-2H-pyran-2-yl)methyl)-5H-pyrrolo[2,3-b]pyrazine-3-carboxamide] | < 10
12 | O=C(NC[C@H]1OC[C@H](Nc2cncc(C(F)(F)F)n2)[C@@H](O)[C@H]1O)c1cnc(-c2ccccc2)cn1 [A83, N-(((2R,3R,4R,5 S)-3,4-dihydroxy-5-((6-(trifluoromethyl)pyrazin-2-yl)amino)tetrahydro-2H-pyran-2-yl)methyl)-5-phenylpyrazine-2-carboxamide] | < 10
13 | O=C(O)c1cnc(C(=O)NC[C@H]2OC[C@H](Nc3cncc(C(F)(F)F)n3)[C@@H](O)[C@H]2O)nc1 [A84, 2-((((2R,3R,4R,5S)-3,4-dihydroxy-5-((6-(trifluoromethyl)pyrazin-2-yl)amino)tetrahydro-2H-pyran-2-yl)methyl)carbamoyl)pyrimidine-5-carboxylic acid] | < 10
14 | O[C@@H]1[C@H](O)[C@@H](Nc2cncc(C(F)(F)F)n2)CO[C@@H]1CNc1ncncn1 [A85, (2R,3R,4R,5S)-2-(((1,3,5-triazin-2-yl)amino)methyl)-5-((6-(trifluoromethyl)pyrazin-2-yl)amino)tetrahydro-2H-pyran-3,4-diol] | < 10
15 | O=C(NC[C@H]1OC[C@H](Nc2cncc(C(F)(F)F)n2)[C@@H](O)[C@H]1O)c1ncc2c(n1)CCNC2 [A86, N-(((2R,3R,4R,5S)-3,4-dihydroxy-5-((6-(trifluoromethyl)pyrazin-2-yl)amino)tetrahydro-2H-pyran-2-yl)methyl)-5,6,7,8-tetrahydropyrido[4,3-d]pyrimidine-2-carboxamide] | < 10
16 | [N-]=[N+]=NCCCCCC(=O)NC(COCCC(=O)NCCOCCOCCOCCOC[C@H]1OC[C@H](Nc2cncc(C(F)(F)F)n2)[C@@H](O)[C@H]1O)(COCCC(=O)NCCOCCOCCOCCOC[C@H]1OC[C@H](Nc2cncc(C(F)(F)F)n2)[C@@H](O)[C@H]1O)COCCC(=O)NCCOCCOCCOCCOC[C@H]1OC[C@H](Nc2cncc(C(F)(F)F)n2)[C@@H](O)[C@H]1O [A87, 3,3′-((2-(6-azidohexanamido)-2-(1-((2R,3R,4R,5S)-3,4-dihydroxy-5-((6-(trifluoromethyl)pyrazin-2-yl)amino)tetrahydro-2H-pyran-2-yl)-15-oxo-2,5,8,11,18-pentaoxa-14-azanonadecan-19-yl)propane-1,3-diyl)bis(oxy))bis(N-(1-((2R,3R,4R,5S)-3,4-dihydroxy-5-((6-(trifluoromethyl)pyrazin-2-yl)amino)tetrahydro-2H-pyran-2-yl)-2,5,8,11-tetraoxatridecan-13-yl)propanamide)] | < 10
17 | O=C(NC[C@H]1OC[C@H](Nc2cncc(C(F)(F)F)n2)[C@@H](O)[C@H]1O)c1ccc2c(n1)CCCN2 [A88, N-(((2R,3R,4R,5S)-3,4-dihydroxy-5-((6-(trifluoromethyl)pyrazin-2-yl)amino)tetrahydro-2H-pyran-2-yl)methyl)-5,6,7,8-tetrahydro-1,5-naphthyridine-2-carboxamide] | < 10
18 | O=C(NC[C@H]1OC[C@H](Nc2cncc(C(F)(F)F)n2)[C@@H](O)[C@H]1O)c1cnc(-c2ccccc2)nc1 [A89] | < 10
19 | O[C@@H]1[C@H](O)[C@@H](Nc2cncc(C(F)(F)F)n2)CO[C@@H]1CN1CCNCC1 [A91, (2R,3R,4R,5S)-2-(piperazin-1-ylmethyl)-5-((6-(trifluoromethyl)pyrazin-2-yl)amino)tetrahydro-2H-pyran-3,4-diol] | < 10
20 | NC1CC2(C1)CC(NC(=O)C[C@H]1OC[C@H](Nc3cncc(C(F)(F)F)n3)[C@@H](O)[C@H]1O)C2 (stereo partly drawn) [A92, N-(6-aminospiro[3.3]heptan-2-yl)-2-((2R,3R,4R,5S)-3,4-dihydroxy-5-((6-(trifluoromethyl)pyrazin-2-yl)amino)tetrahydro-2H-pyran-2-yl)acetamide] | < 10
21 | O=C(O)CCC(=O)NC1CC2(C1)CC(NC(=O)C[C@H]1OC[C@H](Nc3cncc(C(F)(F)F)n3)[C@@H](O)[C@H]1O)C2 (stereo partly drawn) [A93] | < 10
22 | OC[C@H]1O[C@@H](c2ccccc2)[C@H](Nc2nccc(C(F)(F)F)n2)[C@@H](O)[C@H]1O [A94, (2R,3R,4R,5R,6S)-2-(hydroxymethyl)-6-phenyl-5-((4-(trifluoromethyl)pyrimidin-2-yl)amino)tetrahydro-2H-pyran-3,4-diol] | < 10
23 | CC(=O)N[C@@H]1[C@@H](O)[C@@H](O)[C@@H](CO)O[C@@H]1c1ccccc1 [A95, N-((2R,3R,4R,5R,6R)-4,5-dihydroxy-6-(hydroxymethyl)-2-phenyltetrahydro-2H-pyran-3-yl)acetamide] | < 10
24 | OC[C@H]1O[C@H](c2ccccc2)[C@H](Nc2nccc(C(F)(F)F)n2)[C@@H](O)[C@H]1O [A96, (2R,3R,4R,5R,6R)-2-(hydroxymethyl)-6-phenyl-5-((4-(trifluoromethyl)pyrimidin-2-yl)amino)tetrahydro-2H-pyran-3,4-diol] | < 10
25 | O=C(O)c1ccc(N2CCC(CN3CCN(C[C@H]4OC[C@H](Nc5ccnc(C(F)(F)F)n5)[C@@H](O)[C@H]4O)CC3)CC2)cc1 [A97, 4-(4-((4-(((2R,3R,4R,5S)-3,4-dihydroxy-5-((2-(trifluoromethyl)pyrimidin-4-yl)amino)tetrahydro-2H-pyran-2-yl)methyl)piperazin-1-yl)methyl)piperidin-1-yl)benzoic acid] | < 10
26 | NC[C@H]1OC[C@H](Nc2cccc(C(F)(F)F)n2)[C@@H](O)[C@H]1O [A98, (2R,3R,4R,5S)-2-(aminomethyl)-5-((6-(trifluoromethyl)pyridin-2-yl)amino) tetrahydro-2H-pyran-3,4-diol] | < 10
27 | NC[C@H]1OC[C@H](Nc2nc(C(F)(F)F)ccc2F)[C@@H](O)[C@H]1O [A99, (2R,3R,4R,5S)-2-(aminomethyl)-5-((3-fluoro-6-(trifluoromethyl)pyridin-2-yl)amino)tetrahydro-2H-pyran-3,4-diol] | < 10
